In article doi:10.1101/2022.04.05.487228v1 (biorxiv, 2022):

Target: bovine rod opsin (unliganded, in ROS membranes) (Bos taurus, UniProt P02699)
Experiment: intrinsic Trp fluorescence quenching at […] nm
Assay type: binding

Chain of bovine rod opsin (unliganded, in ROS membranes) (P02699 whole entry): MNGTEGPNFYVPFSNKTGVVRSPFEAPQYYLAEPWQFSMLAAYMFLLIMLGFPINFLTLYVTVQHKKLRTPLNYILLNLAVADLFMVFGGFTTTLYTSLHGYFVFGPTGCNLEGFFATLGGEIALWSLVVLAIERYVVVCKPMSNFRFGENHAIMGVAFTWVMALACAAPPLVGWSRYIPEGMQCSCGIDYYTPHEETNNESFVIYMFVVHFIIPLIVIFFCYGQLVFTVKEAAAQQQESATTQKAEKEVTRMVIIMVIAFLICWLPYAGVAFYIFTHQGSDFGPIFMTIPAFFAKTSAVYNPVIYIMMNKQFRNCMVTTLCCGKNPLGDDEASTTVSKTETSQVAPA

Row | EC50 | Compound
1 | 375 ± 21 nM | Cc1c(OCc2ccc(C(=O)O)cc2)ccc2c3c(c(=O)oc12)CCC3 [CR2]
2 | 171 ± 23 nM | Cc1c(OC(C)C(=O)OCc2ccccc2)ccc2c3c(c(=O)oc12)CCC3 (stereo not shown) [CR4]
3 | 275 ± 26 nM | Cc1cc(=O)oc2cc(OC(C(=O)c3ccccc3)c3ccccc3)ccc12 (stereo not shown) [CR1]
4 | 207 ± 46 nM | Cc1ccc(C(=O)Oc2ccc3c4c(c(=O)oc3c2)CCCC4)cc1 [CR3]
